Results published in patent US20050084492A1, “Assay method to monitor the response of anti-cytokine therapy” (priority 2003, published 2005).

Key:
A498 cells = test: Induction of SAA production in A498 renal carcinoma cells by cytokines, SAA ELISA of culture supernatant; format: cell-based; conditions: human renal tumor A498 cells stimulated overnight with the cytokine(s); SAA in culture supernatant by ELISA (FIG. 2A)
Excerpt: (§1) A-498, a renal carcinoma cell line was purchased from ATCC (Rockville, Md.). Cells were maintained according to ATCC instructions in log phase of cell growth in DMEM/10% heat-inactivated FBS, 1% L-Gut, 1% NEAA and 1% NaPyr. CNTO 328, an anti-human IL-6 antibody developed at Centocor and disclosed in U.S. patent application Ser. No. 10/280,716, hereby incorporated by reference into the present application, was used at several concentrations in the assay. F 105, human anti-gp 120 IgGl, also developed at Centocor, was used as a negative control antibody. Anti-SAA monoclonal antibody (clone REU-86.2, Research Diagnostics, Inc.) was used for SAA immunostaining.
(§2) A498 cells were cultured for 24 hrs in 96-well flat bottom tissue culture plates at a concentration of 6×10^4 cells/100 ul in DMEM complete media at 37 °C./5% CO2. Cells were washed with PBS then starved for 1 hr in 100 ul of serum free DMEM media at room temp. A combination of IL-6 (100 ng/ml), sIL-6R (200 ng /ml) and IL-1b (1 ng/ml) mixture was incubated with serial dilutions of CNTO 328 or F105 control antibody for 30 minutes at room temperature. 100 ul of the mixture was added to the cells and incubated at 37 °C./5% CO2 overnight.
(§3) The cell culture supernatant was assayed immediately for hSAA production using Biosource human SAA kit (Camrillo, Calif.) following manufacturer's instructions.

IL-6 = IL-6 (Homo sapiens, UniProt P05231); test: Inhibition of IL-6/sIL-6R/IL-1β induced SAA production from A498 cell line, SAA ELISA; format: cell-based; conditions: A498 cells; IL-6 (100 ng/ml), sIL-6R (200 ng/ml) and IL-1b (1 ng/ml) pre-incubated with serial dilutions of antibody; dose dependent (FIG. 2A & B)
Excerpt: as §1, §2, §3

Sequence of IL-6 (P05231 30-212): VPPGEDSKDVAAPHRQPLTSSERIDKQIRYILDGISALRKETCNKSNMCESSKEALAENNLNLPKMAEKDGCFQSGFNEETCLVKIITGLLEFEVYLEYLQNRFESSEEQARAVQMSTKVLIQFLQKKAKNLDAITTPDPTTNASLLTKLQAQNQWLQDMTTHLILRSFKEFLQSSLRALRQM

## IL-1b: cytokine used to stimulate A498 cells
A498 cells
  SAA produced in culture: < 100 ng/mL

## CNTO 328: an anti-human IL-6 antibody developed at Centocor and disclosed in U.S. patent application Ser. No. 10/280,716
IL-6
  inhibition of IL-6/sIL-6R/IL-1β induced SAA production: completely inhibited
